The NIST ThermoML archive (doi:10.1016/j.jct.2016.11.009)
Numbers after ± are expanded uncertainties.

Assay: xn = mol fraction of the nth substance listed
Conditions: Fluid (supercritical or subcritical phases), Buoyancy - hydrostatic balance with magnetic suspension - one sinker

In the case of C [methane] + O=C=O, the mass density (300.07 K, 16598 kPa, x2 = 0.0998) is reported as 158.42 ± 1.3 kg/m3, the mass density (300.1 K, 4310 kPa, x2 = 0.8988) is reported as 90.757 ± 0.42 kg/m3 and the mass density (300.21 K, 10004 kPa, x2 = 0.3997) is reported as 147.143 ± 0.95 kg/m3. For the same compound, the mass density (303.07 K, 10005 kPa, x2 = 0.8988) was 522.742 ± 7.9 kg/m3, the mass density (303.07 K, 11007 kPa, x2 = 0.8988) was 588.449 ± 6.9 kg/m3 and the mass density (303.1 K, 11000 kPa, x2 = 0.6015) was 229.981 ± 1.8 kg/m3. For the same compound, the mass density (303.1 K, 12003 kPa, x2 = 0.0998) was 109.095 ± 0.76 kg/m3, the mass density (303.1 K, 18071 kPa, x2 = 0.7985) was 621.015 ± 4.3 kg/m3 and the mass density (303.11 K, 4004 kPa, x2 = 0.8988) was 80.364 ± 0.39 kg/m3. For the same compound, the mass density (303.11 K, 9000 kPa, x2 = 0.0998) was 78.724 ± 0.54 kg/m3, the mass density (303.11 K, 9001 kPa, x2 = 0.7985) was 254.341 ± 2.4 kg/m3 and the mass density (303.11 K, 17996 kPa, x2 = 0.2017) was 202.897 ± 1.5 kg/m3. It also gave a mass density (303.11 K, 18001 kPa, x2 = 0.0998) of 167.945 ± 1.2 kg/m3, a mass density (303.12 K, 3001 kPa, x2 = 0.0998) of 23.673 ± 0.18 kg/m3 and a mass density (303.12 K, 10001 kPa, x2 = 0.7985) of 320.908 ± 3.6 kg/m3. The mass density (303.12 K, 11000 kPa, x2 = 0.0998) was 98.851 ± 0.7 kg/m3, the mass density (303.13 K, 3999 kPa, x2 = 0.2017) was 37.359 ± 0.22 kg/m3 and the mass density (303.13 K, 4999 kPa, x2 = 0.3997) was 61.796 ± 0.33 kg/m3. It also gave a mass density (303.13 K, 6004 kPa, x2 = 0.7985) of 125.434 ± 0.68 kg/m3, a mass density (303.13 K, 6999 kPa, x2 = 0.2017) of 69.612 ± 0.42 kg/m3 and a mass density (303.13 K, 11860 kPa, x2 = 0.7985) of 444.556 ± 4.8 kg/m3. For the same compound, the mass density (303.13 K, 11999 kPa, x2 = 0.2017) was 130.323 ± 0.88 kg/m3, the mass density (303.14 K, 3995 kPa, x2 = 0.6015) was 59.469 ± 0.29 kg/m3 and the mass density (303.14 K, 7004 kPa, x2 = 0.6015) was 119.411 ± 0.69 kg/m3. The mass density (303.14 K, 8002 kPa, x2 = 0.0998) was 68.892 ± 0.47 kg/m3, the mass density (303.14 K, 17999 kPa, x2 = 0.6015) was 420.157 ± 3.1 kg/m3 and the mass density (303.15 K, 5000 kPa, x2 = 0.0998) was 40.895 ± 0.27 kg/m3. It also gave a mass density (303.15 K, 8006 kPa, x2 = 0.6015) of 143.46 ± 0.88 kg/m3, a mass density (303.15 K, 9999 kPa, x2 = 0.6015) of 198.747 ± 1.5 kg/m3 and a mass density (303.15 K, 10004 kPa, x2 = 0.0998) of 88.738 ± 0.61 kg/m3. For the same compound, the mass density (303.15 K, 11003 kPa, x2 = 0.7985) was 391.279 ± 4.6 kg/m3, the mass density (303.15 K, 12001 kPa, x2 = 0.3997) was 181.298 ± 1.2 kg/m3 and the mass density (303.15 K, 14998 kPa, x2 = 0.7985) was 561.073 ± 4.5 kg/m3. The mass density (303.16 K, 4000 kPa, x2 = 0.7985) was 73.078 ± 0.34 kg/m3, the mass density (303.16 K, 4001 kPa, x2 = 0.3997) was 48.004 ± 0.29 kg/m3 and the mass density (303.16 K, 5009 kPa, x2 = 0.6015) was 77.914 ± 0.39 kg/m3. It also gave a mass density (303.16 K, 6006 kPa, x2 = 0.0998) of 50.034 ± 0.34 kg/m3, a mass density (303.16 K, 7994 kPa, x2 = 0.7985) of 200.301 ± 1.5 kg/m3 and a mass density (303.16 K, 8000 kPa, x2 = 0.3997) of 108.241 ± 0.63 kg/m3. The mass density (303.16 K, 8016 kPa, x2 = 0.8988) was 253.316 ± 3 kg/m3, the mass density (303.16 K, 8992 kPa, x2 = 0.8988) was 374.284 ± 7.8 kg/m3 and the mass density (303.16 K, 8999 kPa, x2 = 0.6015) was 169.77 ± 1.1 kg/m3. The mass density (303.17 K, 4998 kPa, x2 = 0.2017) was 47.685 ± 0.29 kg/m3, the mass density (303.17 K, 5005 kPa, x2 = 0.8988) was 108.149 ± 0.54 kg/m3 and the mass density (303.17 K, 6001 kPa, x2 = 0.2017) was 58.474 ± 0.35 kg/m3. It also gave a mass density (303.17 K, 9001 kPa, x2 = 0.2017) of 93.089 ± 0.58 kg/m3, a mass density (303.17 K, 14997 kPa, x2 = 0.0998) of 139.317 ± 1 kg/m3 and a mass density (303.17 K, 18000 kPa, x2 = 0.8988) of 742.988 ± 5 kg/m3. For the same compound, the mass density (303.18 K, 4002 kPa, x2 = 0.0998) was 32.139 ± 0.21 kg/m3, the mass density (303.18 K, 5999 kPa, x2 = 0.3997) was 76.379 ± 0.42 kg/m3 and the mass density (303.18 K, 6996 kPa, x2 = 0.3997) was 91.801 ± 0.52 kg/m3. The mass density (303.18 K, 7001 kPa, x2 = 0.8988) was 186.521 ± 1.4 kg/m3, the mass density (303.18 K, 7999 kPa, x2 = 0.2017) was 81.148 ± 0.51 kg/m3 and the mass density (303.19 K, 7000 kPa, x2 = 0.0998) was 59.247 ± 0.39 kg/m3. For the same compound, the mass density (303.19 K, 12002 kPa, x2 = 0.6015) was 261.85 ± 2.2 kg/m3, the mass density (303.19 K, 15005 kPa, x2 = 0.2017) was 167.871 ± 1.2 kg/m3 and the mass density (303.2 K, 5001 kPa, x2 = 0.7985) was 97.235 ± 0.48 kg/m3. For the same compound, the mass density (303.2 K, 8999 kPa, x2 = 0.3997) was 125.402 ± 0.78 kg/m3, the mass density (303.2 K, 10993 kPa, x2 = 0.3997) was 162.067 ± 1.1 kg/m3 and the mass density (303.2 K, 10996 kPa, x2 = 0.2017) was 117.65 ± 0.77 kg/m3. For the same compound, the mass density (303.21 K, 7002 kPa, x2 = 0.7985) was 158.82 ± 0.97 kg/m3, the mass density (303.21 K, 9999 kPa, x2 = 0.3997) was 143.458 ± 0.88 kg/m3 and the mass density (303.21 K, 15000 kPa, x2 = 0.8988) was 701.018 ± 5.2 kg/m3. It also gave a mass density (303.21 K, 17999 kPa, x2 = 0.3997) of 288.435 ± 2 kg/m3, a mass density (303.22 K, 9998 kPa, x2 = 0.2017) of 105.223 ± 0.68 kg/m3 and a mass density (303.22 K, 15003 kPa, x2 = 0.6015) of 352.168 ± 2.8 kg/m3. For the same compound, the mass density (303.23 K, 6005 kPa, x2 = 0.6015) was 97.567 ± 0.51 kg/m3 and the mass density (303.26 K, 6002 kPa, x2 = 0.8988) was 141.868 ± 0.84 kg/m3.
